Experiments:
Type in all cases: functional
[1] = test system: SF-539; assay: Cytotoxicity against human SF539 cells assessed as growth inhibition at 10 uM after 48 hrs by coulter counter analysis; settings: SF-539, 48 h, read-out: GI
[2] = test system: NCI-H322M; assay: Cytotoxicity against human NCI-H322M cells assessed as growth inhibition at 10 uM after 48 hrs by coulter counter analysis; settings: read-out: GI
[3] = test system: Malme-3M; assay: Cytotoxicity against human MALME-3M cells assessed as growth inhibition at 10 uM after 48 hrs by coulter counter analysis; settings: read-out: GI
[4] = test system: NCI-H23; assay: Cytotoxicity against human NCI-H23 cells assessed as growth inhibition at 10 uM after 48 hrs by coulter counter analysis; settings: NCI-H23, 48 h, read-out: GI
[5] = test system: CAKI-1; assay: Cytotoxicity against human Caki1 cells assessed as growth inhibition at 10 uM after 48 hrs by coulter counter analysis; settings: CAKI-1, 48 h, read-out: GI
[6] = test system: UACC-257; assay: Cytotoxicity against human UACC257 cells assessed as growth inhibition at 10 uM after 48 hrs by coulter counter analysis; settings: UACC-257, 48 h, read-out: GI
[7] = test system: OVCAR-5; assay: Cytotoxicity against human OVCAR5 cells assessed as growth inhibition at 10 uM after 48 hrs by coulter counter analysis; settings: OVCAR-5, 48 h, read-out: GI
[8] = test system: HT-29; assay: Cytotoxicity against human HT-29 cells assessed as growth inhibition at 10 uM after 48 hrs by coulter counter analysis; settings: HT-29, 48 h, read-out: GI
[9] = test system: HCT-116; assay: Cytotoxicity against human HCT116 cells assessed as growth inhibition at 10 uM after 48 hrs by coulter counter analysis; settings: HCT-116, 48 h, read-out: GI
[10] = test system: OVCAR-8; assay: Cytotoxicity against human OVCAR8 cells assessed as growth inhibition at 10 uM after 48 hrs by coulter counter analysis; settings: OVCAR-8, 48 h, read-out: GI
[11] = test system: SW-620; assay: Cytotoxicity against human SW620 cells assessed as growth inhibition at 10 uM after 48 hrs by coulter counter analysis; settings: SW-620, 48 h, read-out: GI
[12] = test system: SN12C; assay: Cytotoxicity against human SN12C cells assessed as growth inhibition at 10 uM after 48 hrs by coulter counter analysis; settings: read-out: GI
[13] = test system: SK-MEL-5; assay: Cytotoxicity against human SK-MEL-5 cells assessed as growth inhibition at 10 uM after 48 hrs by coulter counter analysis; settings: SK-MEL-5, 48 h, read-out: GI
[14] = test system: A498; assay: Cytotoxicity against human A498 cells assessed as growth inhibition at 10 uM after 48 hrs by coulter counter analysis; settings: A498, 48 h, read-out: GI
[15] = test system: SNB-75; assay: Cytotoxicity against human SNB75 cells assessed as growth inhibition at 10 uM after 48 hrs by coulter counter analysis; settings: SNB-75, 48 h, read-out: GI
[16] = test system: UACC-62; assay: Cytotoxicity against human UACC62 cells assessed as growth inhibition at 10 uM after 48 hrs by coulter counter analysis; settings: UACC-62, 48 h, read-out: GI
[17] = test system: ACHN; assay: Cytotoxicity against human ACHN cells assessed as growth inhibition at 10 uM after 48 hrs by coulter counter analysis; settings: read-out: GI
[18] = test system: HOP-62; assay: Cytotoxicity against human HOP62 cells assessed as growth inhibition at 10 uM after 48 hrs by coulter counter analysis; settings: HOP-62, 48 h, read-out: GI
[19] = test system: COLO 205; assay: Cytotoxicity against human COLO205 cells assessed as growth inhibition at 10 uM after 48 hrs by coulter counter analysis; settings: COLO 205, 48 h, read-out: GI
[20] = test system: UO-31; assay: Cytotoxicity against human UO31 cells assessed as growth inhibition at 10 uM after 48 hrs by coulter counter analysis; settings: UO-31, 48 h, read-out: GI
[21] = test system: RXF 393; assay: Cytotoxicity against human RXF393 cells assessed as growth inhibition at 10 uM after 48 hrs by coulter counter analysis; settings: RXF 393, 48 h, read-out: GI
[22] = test system: HCC 2998; assay: Cytotoxicity against human HCC2998 cells assessed as growth inhibition at 10 uM after 48 hrs by coulter counter analysis; settings: HCC 2998, 48 h, read-out: GI
[23] = test system: KM12; assay: Cytotoxicity against human KM12 cells assessed as growth inhibition at 10 uM after 48 hrs by coulter counter analysis; settings: KM12, 48 h, read-out: GI
[24] = test system: BT-549; assay: Cytotoxicity against human BT549 cells assessed as growth inhibition at 10 uM after 48 hrs by coulter counter analysis; settings: BT-549, 48 h, read-out: GI
[25] = test system: PC-3; assay: Cytotoxicity against human PC3 cells assessed as growth inhibition at 10 uM after 48 hrs by coulter counter analysis; settings: PC-3, 48 h, read-out: GI
[26] = test system: DU-145; assay: Cytotoxicity against human DU145 cells assessed as growth inhibition at 10 uM after 48 hrs by coulter counter analysis; settings: DU-145, 48 h, read-out: GI
[27] = test system: NCI-H460; assay: Cytotoxicity against human NCI-H460 cells assessed as growth inhibition at 10 uM after 48 hrs by coulter counter analysis; settings: NCI-H460, 48 h, read-out: GI
[28] = test system: SF-295; assay: Cytotoxicity against human SF295 cells assessed as growth inhibition at 10 uM after 48 hrs by coulter counter analysis; settings: SF-295, 48 h, read-out: GI
[29] = test system: M14; assay: Cytotoxicity against human M14 cells assessed as growth inhibition at 10 uM after 48 hrs by coulter counter analysis; settings: M14, 48 h, read-out: GI
[30] = Cytotoxicity against human NCI-ADR-RES cells assessed as growth inhibition at 10 uM after 48 hrs by coulter counter analysis; settings: read-out: GI
[31] = test system: OVCAR-3; assay: Cytotoxicity against human OVCAR3 cells assessed as growth inhibition at 10 uM after 48 hrs by coulter counter analysis; settings: OVCAR-3, 48 h, read-out: GI
[32] = test system: MDA-MB-468; assay: Cytotoxicity against human MDA-MB-468 cells assessed as growth inhibition at 10 uM after 48 hrs by coulter counter analysis; settings: MDA-MB-468, 48 h, read-out: GI
[33] = test system: MDA-MB-435; assay: Cytotoxicity against human MDA-MB-435 cells assessed as growth inhibition at 10 uM after 48 hrs by coulter counter analysis; settings: MDA-MB-435, 48 h, read-out: GI
[34] = test system: U-251; assay: Cytotoxicity against human U251 cells assessed as growth inhibition at 10 uM after 48 hrs by coulter counter analysis; settings: U-251, 48 h, read-out: GI
[35] = test system: Hs-578T; assay: Cytotoxicity against human Hs578T cells assessed as growth inhibition at 10 uM after 48 hrs by coulter counter analysis; settings: read-out: GI
[36] = test system: SNB-19; assay: Cytotoxicity against human SNB19 cells assessed as growth inhibition at 10 uM after 48 hrs by coulter counter analysis; settings: SNB-19, 48 h, read-out: GI
[37] = test system: HCT-15; assay: Cytotoxicity against human HCT15 cells assessed as growth inhibition at 10 uM after 48 hrs by coulter counter analysis; settings: HCT-15, 48 h, read-out: GI
[38] = test system: TK-10; assay: Cytotoxicity against human TK10 cells assessed as growth inhibition at 10 uM after 48 hrs by coulter counter analysis; settings: TK-10, 48 h, read-out: GI
[39] = test system: OVCAR-4; assay: Cytotoxicity against human OVCAR4 cells assessed as growth inhibition at 10 uM after 48 hrs by coulter counter analysis; settings: OVCAR-4, 48 h, read-out: GI
[40] = test system: SK-MEL-28; assay: Cytotoxicity against human SK-MEL-28 cells assessed as growth inhibition at 10 uM after 48 hrs by coulter counter analysis; settings: SK-MEL-28, 48 h, read-out: GI
[41] = test system: A549; assay: Cytotoxicity against human A549 cells assessed as growth inhibition at 10 uM after 48 hrs by coulter counter analysis; settings: A549, 48 h, read-out: GI
[42] = test system: SK-OV-3; assay: Cytotoxicity against human SKOV3 cells assessed as growth inhibition at 10 uM after 48 hrs by coulter counter analysis; settings: SK-OV-3, 48 h, read-out: GI
[43] = test system: T47D; assay: Cytotoxicity against human T47D cells assessed as growth inhibition at 10 uM after 48 hrs by coulter counter analysis; settings: read-out: GI
[44] = Cytotoxicity against human EKVX cells assessed as growth inhibition at 10 uM after 48 hrs by coulter counter analysis; settings: read-out: GI
[45] = test system: MDA-MB-231; assay: Cytotoxicity against human MDA-MB-231 cells assessed as growth inhibition at 10 uM after 48 hrs by coulter counter analysis; settings: MDA-MB-231, 48 h, read-out: GI
[46] = Cytotoxicity against human ovarian cancer cells after 48 hrs by coulter counter analysis; settings: Cancer cell lines
[47] = Cytotoxicity against human non-small cell lung cancer cells after 48 hrs by coulter counter analysis; settings: Cancer cell lines
[48] = Cytotoxicity against human melanoma cells after 48 hrs by coulter counter analysis; settings: Melanoma cell
[49] = Cytotoxicity against human colon cancer cells after 48 hrs by coulter counter analysis; settings: Cancer cell lines
[50] = Cytotoxicity against human renal cancer cells after 48 hrs by coulter counter analysis; settings: Cancer cell lines
[51] = Cytotoxicity against human breast cancer cells after 48 hrs by coulter counter analysis; settings: Cancer cell lines
[52] = Cytotoxicity against human leukemia cells after 48 hrs by coulter counter analysis; settings: Leukemia cell
[53] = Cytotoxicity against human CNS cancer cells after 48 hrs by coulter counter analysis; settings: Cancer cell lines
[54] = Cytotoxicity against human prostate cancer cells after 48 hrs by coulter counter analysis; settings: Cancer cell lines
[55] = read-out: LC50 (the source's name)

NC(=O)CSc1nc2ccccc2c(=O)n1CCc1ccccc1
inhibition of growth at 10 µM [1]: < 10% | inhibition of growth at 10 µM [2]: < 10% | inhibition of growth at 10 µM [3]: < 10% | inhibition of growth at 10 µM [4]: < 10% | inhibition of growth at 10 µM [5]: 12% | inhibition of growth at 10 µM [6]: < 10% | inhibition of growth at 10 µM [7]: < 10% | inhibition of growth at 10 µM [8]: < 10% | inhibition of growth at 10 µM [9]: < 10% | inhibition of growth at 10 µM [10]: < 10% | inhibition of growth at 10 µM [11]: < 10% | inhibition of growth at 10 µM [12]: < 10% | inhibition of growth at 10 µM [13]: < 10% | inhibition of growth at 10 µM [14]: < 10% | inhibition of growth at 10 µM [15]: < 10% | inhibition of growth at 10 µM [16]: < 10% | inhibition of growth at 10 µM [17]: 34% | inhibition of growth at 10 µM [18]: < 10% | inhibition of growth at 10 µM [19]: < 10% | inhibition of growth at 10 µM [20]: < 10% | inhibition of growth at 10 µM [21]: < 10% | inhibition of growth at 10 µM [22]: < 10% | inhibition of growth at 10 µM [23]: < 10% | inhibition of growth at 10 µM [24]: < 10% | inhibition of growth at 10 µM [25]: < 10% | inhibition of growth at 10 µM [26]: < 10% | inhibition of growth at 10 µM [27]: < 10% | inhibition of growth at 10 µM [28]: < 10% | inhibition of growth at 10 µM [29]: < 10% | inhibition of growth at 10 µM [30]: < 10% | inhibition of growth at 10 µM [31]: < 10% | inhibition of growth at 10 µM [32]: < 10% | inhibition of growth at 10 µM [33]: < 10% | inhibition of growth at 10 µM [34]: < 10% | inhibition of growth at 10 µM [35]: < 10% | inhibition of growth at 10 µM [36]: < 10% | inhibition of growth at 10 µM [37]: < 10% | inhibition of growth at 10 µM [38]: < 10% | inhibition of growth at 10 µM [39]: < 10% | inhibition of growth at 10 µM [40]: < 10% | inhibition of growth at 10 µM [41]: 12% | inhibition of growth at 10 µM [42]: < 10% | inhibition of growth at 10 µM [43]: < 10% | inhibition of growth at 10 µM [44]: 10% | inhibition of growth at 10 µM [45]: < 10%

O=c1[nH]cc(F)c(=O)[nH]1 [FLUOROURACIL]
GI50 [46]: 61.4 µM | TGI [46]: > 100 µM | GI50 [47]: > 100 µM | TGI [47]: > 100 µM | CC50 [47, 55]: > 100 µM | GI50 [48]: 70.6 µM | TGI [48]: > 100 µM | GI50 [49]: 8.4 µM | TGI [49]: > 100 µM | CC50 [49, 55]: > 100 µM | GI50 [50]: 45.6 µM | TGI [50]: > 100 µM | GI50 [51]: 76.4 µM | TGI [51]: > 100 µM | TGI [52]: > 100 µM | TGI [53]: > 100 µM | CC50 [53, 55]: > 100 µM | GI50 [54]: 22.7 µM | TGI [54]: > 100 µM | CC50 [54, 55]: > 100 µM

From ChEMBL document CHEMBL2396621, “Design, synthesis and biological evaluation of 2-mercapto-3-phenethylquinazoline bearing anilide fragments as potential antitumor agents: molecular docking study” (2013)
